Patent publication US12435044B2, “Pyridazinone herbicides and pyridazinone intermediates used to prepare a herbicide” (FMC Corporation, priority 2018, dated 2025)

What was measured:
Assay type in all cases: in vivo
[1] = test system: kochia (Kochia scoparia); experiment: Test D pre-/postemergence controlled growth environment test
Text: (§1) Seeds of plant species selected from blackgrass (Alopecurus myosuroides), galium (catchweed bedstraw, Galium aparine), kochia (Kochia scoparia), oilseed rape (Brassica napus), barley, spring (Hordeum vulgare), wheat, spring (Triticum aestivum), oat, wild (Avena fatua), barley, winter (Hordeum vulgare) and wheat, winter (Triticum aestivum) were planted into a silt loam soil and treated preemergence with test chemicals formulated in a non-phytotoxic solvent mixture which included a surfactant.
(§2) At the same time, plants selected from these crop and weed species and also bluegrass (annual bluegrass, Poa annua), canarygrass (littleseed canarygrass, Phalaris minor), chickweed (common chickweed, Stellaria media), bromegrass, downy (downy bromegrass, Bromus tectorum), field poppy (Papaver rhoeas), field violet (Viola arvensis), foxtail, green (Setaria viridis), deadnettle (henbit deadnettle, Lamium amplexicaule), ryegrass, Italian (Lolium multiflorum), lambsquarters (Chenopodium album), pigweed (Amaranthus retroflexus), chamomile (scentless chamomile, Matricaria inodora), Russian thistle (Salsola kali), speedwell (bird's-eye speedwell, Veronica persica), buckwheat, wild (Polygonum convolvulus), mustard, wild (Sinapis arvensis), radish, wild (Raphanus raphanistrum), windgrass (Apera spica-venti), geranium, cutleaf (Geranium dissectum) and Canada thistle (Cirsium arvense) were planted in pots containing Redi-Earth® planting medium (Scotts Company, 14111 Scottslawn Road, Marysville, Ohio 43041) comprising spaghnum peat moss, vermiculite, wetting agent and starter nutrients and treated with postemergence applications of the test chemicals formulated in the same manner. Plants ranged in height from 2 to 18 cm (1- to 4-leaf stage). Treated plants and controls were maintained in a controlled growth environment for 14 to 21 d after which time all species were compared to controls and visually evaluated. Plant response ratings, summarized in Table D, are based on a scale of 0 to 100 where 0 is no effect and 100 is complete control. A dash (-) response means no test result.

[2] = test system: blackgrass (Alopecurus myosuroides); experiment: as above
Text: as §1, §2

[3] = test system: duck salad (Heteranthera limosa); experiment: Test B flooded paddy test; conditions: Flood, 250 g ai/ha, Ducksalad
Procedure: (§3) Plant species in the flooded paddy test selected from rice (Oryza sativa), sedge, umbrella (small-flower umbrella sedge, Cyperus difformis), duck salad (Heteranthera limosa) and barnyardgrass (Echinochloa crus-galli) were grown to the 2-leaf stage for testing. At time of treatment, test pots were flooded to 3 cm above the soil surface, treated by application of test compounds directly to the paddy water, and then maintained at that water depth for the duration of the test. Treated plants and controls were maintained in a greenhouse for 13 to 15 d, after which time all species were compared to controls and visually evaluated. Plant response ratings, summarized in Table B, are based on a scale of 0 to 100 where 0 is no effect and 100 is complete control. A dash (-) response means no test result.

[4] = test system: sedge, umbrella (small-flower umbrella sedge, Cyperus difformis); experiment: Test B flooded paddy test; conditions: Flood, 250 g ai/ha
Procedure: as §3

[5] = test system: barnyardgrass (Echinochloa crus-galli); experiment: Test B flooded paddy test; conditions: Flood, 250 g ai/ha
Procedure: as §3

[6] = test system: rice (Oryza sativa); experiment: Test B flooded paddy test; conditions: Flood, 250 g ai/ha
Procedure: as §3

[7] = test system: galium (catchweed bedstraw, Galium aparine); experiment: Test A postemergence greenhouse test
Text: (§4) Seeds of plant species selected from barnyardgrass (Echinochloa crus-galli), kochia (Kochia scoparia), ragweed (common ragweed, Ambrosia elatior), ryegrass, Italian (Lolium multiflorum), foxtail, giant (Setaria faberii), foxtail, green (Setaria viridis) and pigweed (Amaranthus retroflexus) were planted into a blend of loam soil and sand and treated preemergence with a directed soil spray using test chemicals formulated in a non-phytotoxic solvent mixture which included a surfactant.
(§5) At the same time, plants selected from these weed species and also wheat (Triticum aestivum), corn (Zea mays), blackgrass (Alopecurus myosuroides) and galium (catchweed bedstraw, Galium aparine) were planted in pots containing the same blend of loam soil and sand and treated with postemergence applications of test chemicals formulated in the same manner. Plants ranged in height from 2 to 10 cm and were in the one- to two-leaf stage for the postemergence treatment. Treated plants and untreated controls were maintained in a greenhouse for approximately 10 d, after which time all treated plants were compared to untreated controls and visually evaluated for injury. Plant response ratings, summarized in Table A, are based on a 0 to 100 scale where 0 is no effect and 100 is complete control. A dash (-) response means no test result.

[8] = test system: corn (Zea mays); experiment: Test A postemergence greenhouse test
Text: as §4, §5

[9] = test system: wheat (Triticum aestivum); experiment: Test A postemergence greenhouse test
Text: as §4, §5

[10] = test system: blackgrass (Alopecurus myosuroides); experiment: Test A postemergence greenhouse test
Text: as §4, §5

[11] = test system: sedge, umbrella (small-flower umbrella sedge, Cyperus difformis); experiment: Test C flooded paddy test; conditions: Flood, scale 0 to 100
Text: as §3, with “consisted of” for “selected from”, “(transplanted and water seeded, Oryza” for “(Oryza”, “ducksalad” for “duck salad”, “limosa), Bulrush, Japanese (Scirpus juncoides)” for “limosa)”, “crus-galli)” for “crus-galli) were”, “C” for “B,”

[12] = test system: rice (transplanted and water seeded, Oryza sativa); experiment: Test C flooded paddy test; conditions: Flood, scale 0 to 100
Text: as §3, with “consisted of” for “selected from”, “(transplanted and water seeded, Oryza” for “(Oryza”, “ducksalad” for “duck salad”, “limosa), Bulrush, Japanese (Scirpus juncoides)” for “limosa)”, “crus-galli)” for “crus-galli) were”, “C” for “B,”

[13] = test system: barnyardgrass (Echinochloa crus-galli); experiment: Test C flooded paddy test; conditions: Flood, scale 0 to 100
Text: as §3, with “consisted of” for “selected from”, “(transplanted and water seeded, Oryza” for “(Oryza”, “ducksalad” for “duck salad”, “limosa), Bulrush, Japanese (Scirpus juncoides)” for “limosa)”, “crus-galli)” for “crus-galli) were”, “C” for “B,”

[14] = test system: ducksalad (Heteranthera limosa); experiment: Test C flooded paddy test; conditions: Flood, scale 0 to 100
Text: as §3, with “consisted of” for “selected from”, “(transplanted and water seeded, Oryza” for “(Oryza”, “ducksalad” for “duck salad”, “limosa), Bulrush, Japanese (Scirpus juncoides)” for “limosa)”, “crus-galli)” for “crus-galli) were”, “C” for “B,”

## Cc1ccc2ccc(Cl)cc2c1-c1c(O)c(Cl)nn(C)c1=O [Cpd. No. 22]
[1]; Postemergence, 31 g ai/ha
  Plant response rating, Kochia: 37
[1]; Postemergence, 62 g ai/ha
  Plant response rating, Kochia: 58
[2]; Postemergence, 31 g ai/ha
  Plant response rating, Blackgrass: 75
[2]; Postemergence, 62 g ai/ha
  Plant response rating, Blackgrass: 82
[3]
  Plant response rating (0 to 100 scale): 90
[4]
  Plant response rating (0 to 100 scale): 85
[5]
  Plant response rating (0 to 100 scale): 40
[6]
  Plant response rating (0 to 100 scale): 60
[7]; 31 g ai/ha
  Plant response rating (0 to 100 scale): 100
[7]; 125 g ai/ha
  Plant response rating (0 to 100 scale): 100
[8]; 31 g ai/ha
  Plant response rating (0 to 100 scale): 0
[8]; 125 g ai/ha
  Plant response rating (0 to 100 scale): 10
[9]; 31 g ai/ha
  Plant response rating (0 to 100 scale): 100
[9]; 125 g ai/ha
  Plant response rating (0 to 100 scale): 100
[10]; 31 g ai/ha
  Plant response rating (0 to 100 scale): 70
[10]; 125 g ai/ha
  Plant response rating (0 to 100 scale): 100

## Cc1cc(Cl)c2ccccc2c1-c1c(O)c(Cl)nn(C)c1=O [Cpd. No. 65]
[1]; Postemergence, 16 g ai/ha
  Plant response rating, Kochia: 35
[1]; Postemergence, 31 g ai/ha
  Plant response rating, Kochia: 50
[1]; Postemergence, 62 g ai/ha
  Plant response rating, Kochia: 75
[1]; Postemergence, 125 g ai/ha
  Plant response rating, Kochia: 90
[1]; Preemergence, 16 g ai/ha
  Plant response rating, Kochia: 12
[1]; Preemergence, 31 g ai/ha
  Plant response rating, Kochia: 22
[1]; Preemergence, 62 g ai/ha
  Plant response rating, Kochia: 72
[1]; Preemergence, 125 g ai/ha
  Plant response rating, Kochia: 93
[2]; Postemergence, 16 g ai/ha
  Plant response rating, Blackgrass: 83
[2]; Postemergence, 31 g ai/ha
  Plant response rating, Blackgrass: 90
[2]; Postemergence, 62 g ai/ha
  Plant response rating, Blackgrass: 93
[2]; Postemergence, 125 g ai/ha
  Plant response rating, Blackgrass: 95
[2]; Preemergence, 16 g ai/ha
  Plant response rating, Blackgrass: 13
[2]; Preemergence, 31 g ai/ha
  Plant response rating, Blackgrass: 23
[2]; Preemergence, 62 g ai/ha
  Plant response rating, Blackgrass: 63
[2]; Preemergence, 125 g ai/ha
  Plant response rating, Blackgrass: 90
[3]
  Plant response rating (0 to 100 scale): 80
[4]
  Plant response rating (0 to 100 scale): 90
[5]
  Plant response rating (0 to 100 scale): 40
[6]
  Plant response rating (0 to 100 scale): 20
[11]; 31 g ai/ha
  Plant response rating, Sedge, Umbrella: 95
[11]; 62 g ai/ha
  Plant response rating, Sedge, Umbrella: 100
[11]; 125 g ai/ha
  Plant response rating, Sedge, Umbrella: 100
[11]; 250 g ai/ha
  Plant response rating, Sedge, Umbrella: 100
[12]; 31 g ai/ha
  Plant response rating, Rice, Transplanted: 0
[12]; 62 g ai/ha
  Plant response rating, Rice, Transplanted: 0
[12]; 125 g ai/ha
  Plant response rating, Rice, Transplanted: 20
  Plant response rating, Rice, Water Seeded: 10
[12]; 250 g ai/ha
  Plant response rating, Rice, Transplanted: 70
[13]; 31 g ai/ha
  Plant response rating, Barnyardgrass: 0
[13]; 62 g ai/ha
  Plant response rating, Barnyardgrass: 10
[13]; 125 g ai/ha
  Plant response rating, Barnyardgrass: 30
[13]; 250 g ai/ha
  Plant response rating, Barnyardgrass: 100
[14]; 31 g ai/ha
  Plant response rating, Ducksalad: 95
[14]; 62 g ai/ha
  Plant response rating, Ducksalad: 100
[14]; 125 g ai/ha
  Plant response rating, Ducksalad: 100
[14]; 250 g ai/ha
  Plant response rating, Ducksalad: 100
[7]; 31 g ai/ha
  Plant response rating (0 to 100 scale): 100
[7]; 125 g ai/ha
  Plant response rating (0 to 100 scale): 100
[8]; 31 g ai/ha
  Plant response rating (0 to 100 scale): 30
[8]; 125 g ai/ha
  Plant response rating (0 to 100 scale): 50
[9]; 31 g ai/ha
  Plant response rating (0 to 100 scale): 80
[9]; 125 g ai/ha
  Plant response rating (0 to 100 scale): 90
[10]; 31 g ai/ha
  Plant response rating (0 to 100 scale): 90
[10]; 125 g ai/ha
  Plant response rating (0 to 100 scale): 100
